Laboratory results from patent publication US20240317792A1, “CYCLIC DINUCLEOTIDE METAL COMPOUND, AND PREPARATION AND APPLICATION THEREOF” (HANGZHOU XINGAO BIOTECHNOLOGY CO., LTD., priority 2022, published 2024).

Columns and labels:
[1] = test system: ICR mice with ischemic cerebrovascular injury; experiment: MCAO ischemic cerebrovascular injury model, Zea longa behavioral score; format: in vivo; set-up: key: Zea longa: 0 = no neurological deficit, 4 = no spontaneous walking; conditions: 10 mg/kg intraperitoneal, Zea longa 5-point score
Method: Experimental animals: healthy male Institute of Cancer Research (ICR) mice, weighing 18-20 grams, purchased from Shanghai SLAC Laboratory Animal Co. Ltd, with quality certificate No. (SCXK (Shanghai) 2007-0005), and kept in clean animal houses.
Mouse model: an ischemic cerebrovascular injury model was prepared by a middle cerebral artery occlusion (MCAO) method to verify therapeutic effect of the cyclic dinucleotide metal compounds on ischemic cerebrovascular diseases in the experimental animals.
Experimental method: the ICR mice were anesthetized with 10 wt. % of chloral hydrate by intraperitoneal injection, a mid-cervical incision was made to isolate and ligate a proximal segment, a carotid artery and a branch vessel of a right common carotid artery. A right internal carotid artery was isolated, a pterygoid artery was isolated down along the right internal carotid artery followed by root ligation. A wire was prepared on the proximal segment, and an arterial clip was placed on a distal segment. An incision was made at a branch of the right common carotid artery, and a nylon wire was tied in. A monofilament entered the internal carotid artery, a cranium to an anterior cerebral artery to block all sources of blood flow in a middle cerebral artery. The arterial clip was removed, and the wire prepared on the proximal segment was tied in followed by skin suture. The experimental animals were subjected to cage culture after operation. 2 h after the ischemia, the experimental animals were subjected to abdominal administration by injection, and the nylon wire was removed for reperfusion. 8 h after the reperfusion, the experimental animals were subjected to re-administration. After the operation, behavioral score was performed using a single-blind method with reference to the Zea longa 5-point scoring system, which was shown as follows: 0 point, normal performance with no neurological deficits; 1 point, contralateral forepaws could not fully extend; 2 points, circling to the opposite side when walking; 3 points, falling to the opposite side; 4 points, no spontaneous walking and loss of consciousness.
In the experiment, the ICR mice were divided into 7 groups (10 mice in each group). The 7 groups were listed as follows: A: AD model group, as a negative control group (administration: normal saline); B: cGAMP group, as a positive control group (administration: cyclic dinucleotide); C: [Li2(cGAMP)] group (administration: lithium cyclic dinucleotide prepared in Example 1); D: [Mg(cGAMP)] group (administration: magnesium cyclic dinucleotide prepared in Example 2); E: [Zn(cGAMP)] group (administration: zinc cyclic dinucleotide prepared in Example 5); F: [Mn(cGAMP)] group (administration: manganese cyclic dinucleotide prepared in Example 3); G: [Fe(cGAMP)] group (administration: ferrous cyclic dinucleotide prepared in Example 4); where a preparation method for administration in groups C-G were as follows. Powders prepared in the groups C-G were prepared to solutions of required concentration with normal saline. The administration dosage of every group was 10 mg/kg. And the ICR mice were administered by intraperitoneal injection. The ICR mice were administered once after 2 h of ischemia, then the nylon wire was removed for reperfusion. 8 h after the reperfusion, the ICR mice were administered once. After 24 h, the ICR mice were administered once a day for 7 consecutive days.

[2] = test system: APP/PSI transgenic AD model mice; experiment: Morris water maze spatial probe test, cognitive ability of AD model mice; format: in vivo; conditions: 10 mg/kg intraperitoneal injection once every 2 days for 60 days
Text: Experimental materials, purchased from Shanghai Model Organisms Center Inc, were APP/PSI transgenic AD model mice, aged 4 months old and weighing 24-26 g. The AD model mice were randomly divided into 7 groups (10 mice in each group). The 7 groups were listed as follows: A: AD model group, as a negative control group (administration of normal saline); B: cGAMP group, as a positive control group (administration of cyclic dinucleotide); C: [Li2(cGAMP)] group (administration of lithium cyclic dinucleotide prepared in Example 1); D: [Mg(cGAMP)] group (administration of magnesium cyclic dinucleotide prepared in Example 2); E: [Zn(cGAMP)] group (administration of zinc cyclic dinucleotide prepared in Example 5); F: [Mn(cGAMP)] group (administration of manganese cyclic dinucleotide prepared in Example 3); G: [Fe(cGAMP)] group (administration of ferrous cyclic dinucleotide prepared in Example 4). The administration in groups C-G was performed as follows. The powdered cyclic dinucleotide metal compounds were prepared into solutions of required concentration with normal saline, respectively. The administration dosage was 10 mg/kg, and the administration was performed via intraperitoneal injection once every 2 days for 60 consecutive days.
The Morris water maze test was performed in a round pool, 1 m in diameter, 50 cm high and 30 cm deep with a white bottom of the pool. Water temperature of the Morris water maze was 23±2° C. Four equidistant points, N, E, S and W, were marked on a pool wall as four starting points for tests. The pool was divided into four quadrants, and a platform, which was equidistant from the pool wall and a center of the pool, was placed in the third quadrant. The platform was immersed under water at a depth of 1 cm, so that the platform was not visible. A lot of reference clues (the reference clues were triangles, quadrangles, circles, and diamonds with different colors placed in each quadrant) were pasted around the pool and kept constant for the AD model mice to locate the platform.
A place navigation test was performed for 6 days, and the AD model mice were subjected to training 4 times per day at fixed time spans. At the beginning of the training, the platform was placed in the […]. An AD model mouse was placed into the water facing the pool wall at any one of the four starting points. A record system was used to record time and a swimming path that the AD model mouse found the platform. The AD model mouse was placed into the water at different four starting points (in different quadrants) in the 4-time-training. The AD model mouse found the platform and rested on the platform for 10 seconds followed by next test. Or if the AD model mouse could not find the platform within 90 seconds (a latency was recorded as 90 seconds), the AD model mouse was guided to the platform by an experimenter and rested for 10 seconds followed by next test.
24 h after the place navigation test, the platform was removed. Then the AD model mouse was placed into the water in the third quadrant, the swimming path in 180 s was recorded. Remain time and a number of the AD model mouse crossing through a location of the platform of the AD model mouse in a target quadrant (the third quadrant) were recorded to observe the spatial localization ability of the AD model mouse. SPSS10.0 software was used to process, and one-way analysis of variance (ANOVA) was adopted to compare significance of difference between the 7 groups.

| Compound | Score (7 h after operation) [1] | Score (24 h after operation) [1] | Percentage of time of the AD model mice crossing through the platform in the third quadrant [2] |
| --- | --- | --- | --- |
| Nc1nc2c(ncn2C2OC3COP(=O)([O-])OC4C(COP(=O)([O-])OC2C3O)OC(n2cnc3c(N)ncnc32)C4O)c(=O)[nH]1.[Fe+2] (stereo not drawn) [[Fe(cGAMP)], ferrous cyclic dinucleotide] | 1.41 ± 0.29 | 1.67 ± 0.35 | 0.81 ± 0.23% |
| Nc1nc2c(ncn2[C@@H]2O[C@@H]3COP(=O)([O-])O[C@H]4[C@@H](O)[C@H](n5cnc6c(N)ncnc65)O[C@@H]4COP(=O)([O-])O[C@@H]2[C@@H]3O)c(=O)[nH]1.[Li+].[Li+] [[Li2(cGAMP)], lithium cyclic dinucleotide] | 1.49 ± 0.26 | 1.82 ± 0.19 | 0.91 ± 0.18% |
| Nc1nc2c(ncn2[C@@H]2O[C@@H]3COP(=O)([O-])O[C@H]4[C@@H](O)[C@H](n5cnc6c(N)ncnc65)O[C@@H]4COP(=O)([O-])O[C@@H]2[C@@H]3O)c(=O)[nH]1.[Mg+2] [[Mg(cGAMP)], magnesium cyclic dinucleotide] | 1.09 ± 0.18 | 1.18 ± 0.24 | 0.78 ± 0.10% |
| Nc1nc2c(ncn2C2OC3COP(=O)([O-])OC4C(COP(=O)([O-])OC2C3O)OC(n2cnc3c(N)ncnc32)C4O)c(=O)[nH]1.[Mn+2] (stereo not drawn) [[Mn(cGAMP)], manganese cyclic dinucleotide] | 1.38 ± 0.27 | 1.62 ± 0.39 | 0.83 ± 0.21% |
| Nc1nc2c(ncn2[C@@H]2O[C@@H]3COP(=O)([O-])O[C@H]4[C@@H](O)[C@H](n5cnc6c(N)ncnc65)O[C@@H]4COP(=O)([O-])O[C@@H]2[C@@H]3O)c(=O)[nH]1.[Zn+2] [[Zn(cGAMP)], zinc cyclic dinucleotide] | 1.31 ± 0.15 | 1.57 ± 0.38 | 0.86 ± 0.16% |
| Nc1nc2c(ncn2[C@@H]2O[C@@H]3COP(=O)(O)O[C@H]4[C@@H](O)[C@H](n5cnc6c(N)ncnc65)O[C@@H]4COP(=O)(O)O[C@@H]2[C@@H]3O)c(=O)[nH]1 [cGAMP, 2′3′-cGAMP, reference compound] | 1.67 ± 0.41 | 2.15 ± 0.32 | 0.62 ± 0.17% |
